Assay: Waters ACQUITY UPLC HSS T3, 0.4 mL/min; A: water + 0.1% formic acid; B: acetonitrile + 0.1% formic acid; gradient (min/%B) 0/5 1.5/5 12/95 14/95 14.01/100 17/100
Conditions: stereoisomer not certain

Q: Which LC retention time does the source give for `CCCCCCCCCCCCCCCCCC(=O)OC(CO)COP(=O)(O)OCC(O)CO` (stereo unspecified) here?
A: 5.64 min

Q: With `CC(C)CC(N)C(=O)NC(CCC(=O)O)C(=O)O` (stereo unspecified) as the compound, how does the LC retention time read?
A: 1.05 min

Q: With `C=C1CCC2C(OC(=O)C2(O)CO)C2C(C)C(=O)CC12` (stereo unspecified) as the compound, how does the LC retention time read?
A: 6.31 min

Q: With `CC1(C)C2C(O)CC(C)(C2O)C1OC1OC(CO)C(O)C(O)C1O` (stereo unspecified) as the compound, how does the LC retention time read?
A: 3.99 min

Q: Which LC retention time does the source give for `CC(C)(OC1OC(CO)C(O)C(O)C1O)C1CCC(O)(CO)CC1` (stereo unspecified) here?
A: 5.08 min

Q: For `CC(C)N`, which LC retention time is on record?
A: 0.706 min

Q: Which LC retention time does the source give for `CN1C2CCC1(O)C(O)C(O)C2O` (stereo unspecified) here?
A: 1.05 min

Q: Which LC retention time does the source give for `C=C(C)C1CCC(C)(O)C1CC1=C(O)C(=C(O)c2ccccc2)C(=O)C(CC=C(C)C)(CC=C(C)C)C1=O` (stereo unspecified) here?
A: 8.61 min

Q: For `CC1(OC2OC(CO)C(O)C(O)C2O)CC(O)C2(C(C)(C)O)CC12` (stereo unspecified), which LC retention time is on record?
A: 3.99 min

Q: With `CCC(C(=O)CC(C)C1=C(O)C(=O)C2C3CCC4CC(OC5OC(C(=O)O)C(O)C(O)C5O)CCC4(C)C3CCC12C)C(C)C` (stereo unspecified) as the compound, how does the LC retention time read?
A: 11 min

Q: For `CC1CCC(C(C)(O)CO)CC1OC1OC(CO)C(O)C(O)C1O` (stereo unspecified), which LC retention time is on record?
A: 5.08 min

Q: With `C=CCC=CCC=CCCCCCCCC(C(=O)OC)C(=O)C(=CC(=O)OC)OC` (stereo unspecified) as the compound, how does the LC retention time read?
A: 5.18 min

Q: For `CCO[SiH](CCCSCCC[SiH](OCC)OCC)OCC`, which LC retention time is on record?
A: 1.02 min

Q: Which LC retention time does the source give for `CC(C)C(=O)OC(CC(=O)[O-])C[N+](C)(C)C` (stereo unspecified) here?
A: 3 min

Q: With `CCC(C)C(N)C(=O)NC(CCC(=O)O)C(=O)O` (stereo unspecified) as the compound, how does the LC retention time read?
A: 1.05 min

Q: With `CCCCCC(=O)CCOC1OC(CO)C(O)C(O)C1O` (stereo unspecified) as the compound, how does the LC retention time read?
A: 4.89 min

Q: Which LC retention time does the source give for `O=C(Oc1cc(O)cc(O)c1C(=O)O)c1ccc(O)c(O)c1` here?
A: 1.15 min

Q: With `Nc1nc2c(c(=O)[nH]1)NC(C(O)C(O)COP(=O)(O)OP(=O)(O)OP(=O)(O)O)C(O)N2O` (stereo unspecified) as the compound, how does the LC retention time read?
A: 5.68 min

Q: With `CNc1ccccc1C(=O)OCC(C)C` as the compound, how does the LC retention time read?
A: 4.98 min

Q: With `COc1cc(CCCO)ccc1OC(CO)COC1OCC(O)C(O)C1O` (stereo unspecified) as the compound, how does the LC retention time read?
A: 0.755 min

Q: For `C=C1C(=O)OC2C1CCC(=O)CC1(C)CCC(O)OC21` (stereo unspecified), which LC retention time is on record?
A: 6.31 min

Q: Which LC retention time does the source give for `COc1cc2c(c(OC)c1CC=C(C)C)CC(c1ccc(O)c3c1OC(C)(C)C=C3)CO2` (stereo unspecified) here?
A: 4.37 min

Q: With `Cc1cc(O)cc(O)c1C(=O)OC1CC2(C)C3CC(C)(C)CC3C=C(C=O)C12` (stereo unspecified) as the compound, how does the LC retention time read?
A: 10.6 min

Q: For `CCCCCCC=CCCCCCCCC(=O)OCC(COP(=O)(O)OCC(O)CO)OC(=O)CCCCCCCC=CCCCCCC` (stereo unspecified), which LC retention time is on record?
A: 13 min

Q: With `CC(=O)NC(CO)C(=O)O` (stereo unspecified) as the compound, how does the LC retention time read?
A: 0.786 min

Q: For `CN1CC(c2ccc(O)cc2)OC1(C)C` (stereo unspecified), which LC retention time is on record?
A: 4.98 min

Q: With `CCCCCCC=CCCCCCCCC(=O)OCC(O)COP(=O)(O)OCCN` (stereo unspecified) as the compound, how does the LC retention time read?
A: 4.91 min

Q: Which LC retention time does the source give for `CCCCN(CCCN(CCCN(CCCN)CCCN)CCCN(CCCN)CCCN)CCCN(CCCN(CCCN)CCCN)CCCN(CCCN)CCCN` here?
A: 0.706 min

Q: Which LC retention time does the source give for `Cc1c(C)c(C(=O)C(C)O)n2c1CCC2` (stereo unspecified) here?
A: 4.98 min

Q: Which LC retention time does the source give for `COC(=O)C1(OC(C)=O)CC23CCC4C(C)(O)CCCC4(C)C2CCC1C3` (stereo unspecified) here?
A: 5.17 min

Q: With `CC1=CC(=O)CC(C)(C)C1(O)CCC(C)OC1OC(COC2OCC(O)(CO)C2O)C(O)C(O)C1O` (stereo unspecified) as the compound, how does the LC retention time read?
A: 4.44 min

Q: With `CCCCCON=O` as the compound, how does the LC retention time read?
A: 1.02 min

Q: Which LC retention time does the source give for `NC(CCC(=O)O)C(=O)O` (stereo unspecified) here?
A: 0.786 min

Q: With `CC1=CC(c2c(O)c(C(=O)CCc3ccccc3)c(O)c(C3C=C(C)CCC3C(C)C)c2O)C(C(C)C)CC1` (stereo unspecified) as the compound, how does the LC retention time read?
A: 11 min

Q: Which LC retention time does the source give for `CC1(C)OC2(CO)CCC1CC2OC1OC(CO)C(O)C(O)C1O` (stereo unspecified) here?
A: 3.99 min

Q: With `CCCCCCC=CCCCCCCCC(=O)OC(CO)COP(=O)(O)OCCN` (stereo unspecified) as the compound, how does the LC retention time read?
A: 4.91 min

Q: For `CC(=O)NC(CC(C)C)C(=O)NC(CC(C)C)C(=O)NC(C=O)CCCN=C(N)N` (stereo unspecified), which LC retention time is on record?
A: 12.2 min

Q: For `COC1CCC(=O)N1` (stereo unspecified), which LC retention time is on record?
A: 0.851 min

Q: For `CC1CCC2(C(=O)O)CCC3(C)C(=CCC4C5(C)CCC(OC(=O)c6ccccc6)C(C)(C)C5C(=O)CC43C)C2C1C` (stereo unspecified), which LC retention time is on record?
A: 11 min

Q: With `CC(N)C(=O)O` (stereo unspecified) as the compound, how does the LC retention time read?
A: 0.806 min

Q: Which LC retention time does the source give for `CC(=O)c1cnccn1` here?
A: 1.06 min

Q: For `CC(CP(CCCCCCS(=O)(=O)[O-])CCCCCCS(=O)(=O)[O-])P(CCCCCCS(=O)(=O)[O-])CCCCCCS(=O)(=O)[O-]` (stereo unspecified), which LC retention time is on record?
A: 1.02 min

Q: For `CC1(COC(=O)c2ccccc2)CCC2(C)CCC3(C)C4=CCC5C(C)(CCC(OC(=O)c6ccc(N)cc6)C5(C)C)C4=CCC3(C)C2C1` (stereo unspecified), which LC retention time is on record?
A: 10.9 min

Q: Which LC retention time does the source give for `CC(C)=CCCC(C)(OC1OC(CO)C(O)C(O)C1O)C1CCC2(C)C1C(O)CC1C3(C)CCC(OC4OC(CO)C(O)C(O)C4O)C(C)(C)C3CCC12C` (stereo unspecified) here?
A: 9.82 min

Q: For `O=S(=O)([O-])CCCCCCCP(CCCCCCCS(=O)(=O)[O-])CN(CP(CCCCCCCS(=O)(=O)[O-])CCCCCCCS(=O)(=O)[O-])c1ccccc1`, which LC retention time is on record?
A: 1.3 min

Q: Which LC retention time does the source give for `Nc1ncnc2c1ncn2C1OC(CO)C(O)C1OP(=O)(O)O` (stereo unspecified) here?
A: 0.934 min

Q: Which LC retention time does the source give for `CCC(C)C(=O)OC(CC(=O)[O-])C[N+](C)(C)C` (stereo unspecified) here?
A: 4.04 min

Q: For `CC1=CC(O)CC(C)(C)C1(O)C=CC(C)OC1OC(COC2OCC(O)(CO)C2O)C(O)C(O)C1O` (stereo unspecified), which LC retention time is on record?
A: 4.44 min

Q: With `CCCCCC=CCC=CCCCCCCCC(=O)OC(COC(=O)CCCCCCCC=CCCCCCC)COP(=O)(O)OCC(O)CO` (stereo unspecified) as the compound, how does the LC retention time read?
A: 13.9 min

Q: With `CC(C)=CCCC(C)CCOC1OC(CO)C(O)C(O)C1OC1OC(CO)C(O)C(O)C1O` (stereo unspecified) as the compound, how does the LC retention time read?
A: 4.52 min

Q: With `O=c1[nH]cnc2nc[nH]c12` as the compound, how does the LC retention time read?
A: 1.1 min

Q: Which LC retention time does the source give for `CCCCCC=CCC(O)CC=CC=CC(SCC(N)C(=O)O)C(O)CCCC(=O)O` (stereo unspecified) here?
A: 9.02 min

Q: With `CCC1OC(=O)C(C)C(OC2CC(C)(O)C(O)C(C)O2)C(C)C(O)C(C)(O)CC(C)C(=O)C(C)C(O)C1C` (stereo unspecified) as the compound, how does the LC retention time read?
A: 9.82 min

Q: Which LC retention time does the source give for `CCCCCC(O)C=CC1=CCC(=O)C1CC=CCCCC(=O)O` (stereo unspecified) here?
A: 4.99 min

Q: Which LC retention time does the source give for `CC(=O)C1OC1(O)C(C)=CC=CC(C)=CC=CC=C(C)C=CC=C(C)C=CC1=C(C)CCCC1(C)C` (stereo unspecified) here?
A: 10.4 min

Q: For `CNC(CCC(=O)O)C(=O)O` (stereo unspecified), which LC retention time is on record?
A: 0.912 min

Q: With `CCC(C)C(C(=O)NC(C(=O)NC1C(=O)NC(Cc2c[nH]c3ccccc23)C(=O)NCC(=O)c2ccc(cc2)OC1(C)C)C(C)C)N(C)C` (stereo unspecified) as the compound, how does the LC retention time read?
A: 5.47 min

Q: Which LC retention time does the source give for `CCCCCC1OC(=O)C(C(C)CC)N(C)C(=O)C2CCCN2C(=O)C(C(C)C)OC(=O)C(Cc2ccccc2)N(C)C(=O)C(C(C)C)NC(=O)C1C` (stereo unspecified) here?
A: 9.85 min

Q: With `CC1CCC2(C(=O)O)CCC3(C)C(=CC(=O)C4C5(C)CCC(OC(=O)c6ccccc6)C(C)(C)C5CCC43C)C2C1C` (stereo unspecified) as the compound, how does the LC retention time read?
A: 11 min

Q: Which LC retention time does the source give for `CC1(C)C(O)CC(O)C23C(=O)OC4OCC(=CCC12)C43` (stereo unspecified) here?
A: 6.31 min

Q: For `O=C(O)CC1CCC(=O)C1CC=CCCOC1OC(CO)C(O)C(O)C1O` (stereo unspecified), which LC retention time is on record?
A: 0.755 min

Q: Which LC retention time does the source give for `CCCCCCCCCCCCCCCC(=O)OCC(COP(=O)([O-])OCC[N+](C)(C)C)OC(=O)CCCC(O)C=CC=O` (stereo unspecified) here?
A: 5.43 min

Q: For `CCCCCC=CCC(O)C=CC=CCC=CCCCC(=O)NCCS(=O)(=O)O` (stereo unspecified), which LC retention time is on record?
A: 4.09 min

Q: With `O=C(O)CCCC(O)C=CC=CCCC(O)CC=CCCCCC(O)(O)O` (stereo unspecified) as the compound, how does the LC retention time read?
A: 8.55 min

Q: With `CC(=O)OCC[N+](C)(C)C` as the compound, how does the LC retention time read?
A: 0.772 min

Q: With `CCCCCC(=O)CCC1C=CC(=O)C1CC=CCCCC(=O)O` (stereo unspecified) as the compound, how does the LC retention time read?
A: 4.99 min

Q: For `C=C1C(=O)OC2C1CC=C1CC(C)(CCC1OO)C2O` (stereo unspecified), which LC retention time is on record?
A: 6.31 min

Q: With `CCCCC=CCCCCCCCC(=O)OCC(COP(=O)(O)OCC(N)C(=O)O)OC(=O)CCCCCCCCCCC` (stereo unspecified) as the compound, how does the LC retention time read?
A: 5.43 min

Q: For `CCCCCC(O)C=CC1OC(O)CC(O)C1CC=CCC(=O)O` (stereo unspecified), which LC retention time is on record?
A: 8.51 min

Q: For `O=C(OCC1OC(Oc2ccc(C=Cc3cc(O)cc(O)c3)cc2O)C(O)C(O)C1O)c1cc(O)c(O)c(O)c1` (stereo unspecified), which LC retention time is on record?
A: 1.11 min

Q: Which LC retention time does the source give for `CC(C)C(N)C(=O)O` (stereo unspecified) here?
A: 1.02 min

From the RepoRT retention time repository
